Key:
[1] = target: T1, SMARCA2-HiBiT HeLa cells (protein which is expressed from the SMARCA2 gene) (Homo sapiens, UniProt P51531); assay: SMARCA2 degradation assay (HiBiT-fusion HeLa cell line, 24 h, luminescence); assay type: cell-based
T1 construct: protein which is expressed from the SMARCA2 and SMARCA4 genes; host or cells: HeLa (SMARCA2-HiBiT engineered line)
Method in brief: (§1)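 HiBiT-fusion HeLa lines, 8,000 cells/well, overnight attachment; cpd 10-pt series (typically 10 μM–300 pM), 24 h, 37° C. Lysis with LgBiT + HiBiT substrate, 10 min shaking at RT, luminescence read. DC50 from dose-response fit; % degradation also scored at 1 μM.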

[2] = target: T2, SMARCA4-HiBiT HeLa cells (protein which is expressed from the SMARCA4 gene) (Homo sapiens, UniProt P51532); assay: SMARCA4 degradation assay (HiBiT-fusion HeLa cell line, 24 h, luminescence); assay type: cell-based
T2 construct: protein which is expressed from the SMARCA2 and SMARCA4 genes; host or cells: HeLa (SMARCA4-HiBiT engineered line)
T2 sequence (P51532 whole entry, the tested form may be a part): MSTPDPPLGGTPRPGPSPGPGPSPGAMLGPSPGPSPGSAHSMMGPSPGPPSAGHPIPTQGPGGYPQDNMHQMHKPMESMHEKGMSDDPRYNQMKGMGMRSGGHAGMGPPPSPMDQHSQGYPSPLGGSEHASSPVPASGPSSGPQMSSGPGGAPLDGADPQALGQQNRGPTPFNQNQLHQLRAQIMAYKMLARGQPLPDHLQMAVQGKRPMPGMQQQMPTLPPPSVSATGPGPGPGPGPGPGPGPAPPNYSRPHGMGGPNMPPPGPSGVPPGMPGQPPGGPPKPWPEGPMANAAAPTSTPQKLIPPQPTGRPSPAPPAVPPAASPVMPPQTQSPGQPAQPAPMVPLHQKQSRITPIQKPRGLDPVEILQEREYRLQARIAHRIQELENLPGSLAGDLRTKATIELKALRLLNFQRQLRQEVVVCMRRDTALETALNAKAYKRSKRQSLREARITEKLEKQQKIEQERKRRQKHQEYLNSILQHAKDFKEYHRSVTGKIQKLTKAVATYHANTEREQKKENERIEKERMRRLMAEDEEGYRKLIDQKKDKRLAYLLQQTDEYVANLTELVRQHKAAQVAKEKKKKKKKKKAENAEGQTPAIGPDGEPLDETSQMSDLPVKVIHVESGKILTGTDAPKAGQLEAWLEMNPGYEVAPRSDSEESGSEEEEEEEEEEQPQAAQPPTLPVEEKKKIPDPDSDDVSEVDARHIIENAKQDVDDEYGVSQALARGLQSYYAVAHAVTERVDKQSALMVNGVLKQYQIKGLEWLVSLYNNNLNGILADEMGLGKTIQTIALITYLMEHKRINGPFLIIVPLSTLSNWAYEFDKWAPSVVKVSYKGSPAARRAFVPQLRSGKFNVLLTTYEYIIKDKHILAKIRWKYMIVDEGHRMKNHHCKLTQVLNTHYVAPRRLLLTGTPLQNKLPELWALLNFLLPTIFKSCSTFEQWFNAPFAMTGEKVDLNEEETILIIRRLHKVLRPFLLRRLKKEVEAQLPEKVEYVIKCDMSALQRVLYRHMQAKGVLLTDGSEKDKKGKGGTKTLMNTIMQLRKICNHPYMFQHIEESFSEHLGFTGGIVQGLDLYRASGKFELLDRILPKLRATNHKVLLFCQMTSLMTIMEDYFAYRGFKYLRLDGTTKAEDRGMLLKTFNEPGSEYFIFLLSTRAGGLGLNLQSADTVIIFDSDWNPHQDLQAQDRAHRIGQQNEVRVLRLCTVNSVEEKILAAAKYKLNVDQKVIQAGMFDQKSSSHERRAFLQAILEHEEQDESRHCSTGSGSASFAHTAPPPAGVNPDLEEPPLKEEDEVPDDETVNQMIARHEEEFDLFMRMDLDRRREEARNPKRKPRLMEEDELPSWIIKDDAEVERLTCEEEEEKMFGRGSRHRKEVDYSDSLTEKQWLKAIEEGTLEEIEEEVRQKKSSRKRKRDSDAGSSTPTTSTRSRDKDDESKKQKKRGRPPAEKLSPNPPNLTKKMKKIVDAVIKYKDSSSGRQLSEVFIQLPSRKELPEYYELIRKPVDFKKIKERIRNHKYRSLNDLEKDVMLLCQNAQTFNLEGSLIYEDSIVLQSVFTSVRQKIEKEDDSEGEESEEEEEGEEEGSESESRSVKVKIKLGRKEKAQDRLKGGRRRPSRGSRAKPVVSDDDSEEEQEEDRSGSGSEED
Method in brief: as §1

T1 sequence (P51531 whole entry, the tested form may be a part): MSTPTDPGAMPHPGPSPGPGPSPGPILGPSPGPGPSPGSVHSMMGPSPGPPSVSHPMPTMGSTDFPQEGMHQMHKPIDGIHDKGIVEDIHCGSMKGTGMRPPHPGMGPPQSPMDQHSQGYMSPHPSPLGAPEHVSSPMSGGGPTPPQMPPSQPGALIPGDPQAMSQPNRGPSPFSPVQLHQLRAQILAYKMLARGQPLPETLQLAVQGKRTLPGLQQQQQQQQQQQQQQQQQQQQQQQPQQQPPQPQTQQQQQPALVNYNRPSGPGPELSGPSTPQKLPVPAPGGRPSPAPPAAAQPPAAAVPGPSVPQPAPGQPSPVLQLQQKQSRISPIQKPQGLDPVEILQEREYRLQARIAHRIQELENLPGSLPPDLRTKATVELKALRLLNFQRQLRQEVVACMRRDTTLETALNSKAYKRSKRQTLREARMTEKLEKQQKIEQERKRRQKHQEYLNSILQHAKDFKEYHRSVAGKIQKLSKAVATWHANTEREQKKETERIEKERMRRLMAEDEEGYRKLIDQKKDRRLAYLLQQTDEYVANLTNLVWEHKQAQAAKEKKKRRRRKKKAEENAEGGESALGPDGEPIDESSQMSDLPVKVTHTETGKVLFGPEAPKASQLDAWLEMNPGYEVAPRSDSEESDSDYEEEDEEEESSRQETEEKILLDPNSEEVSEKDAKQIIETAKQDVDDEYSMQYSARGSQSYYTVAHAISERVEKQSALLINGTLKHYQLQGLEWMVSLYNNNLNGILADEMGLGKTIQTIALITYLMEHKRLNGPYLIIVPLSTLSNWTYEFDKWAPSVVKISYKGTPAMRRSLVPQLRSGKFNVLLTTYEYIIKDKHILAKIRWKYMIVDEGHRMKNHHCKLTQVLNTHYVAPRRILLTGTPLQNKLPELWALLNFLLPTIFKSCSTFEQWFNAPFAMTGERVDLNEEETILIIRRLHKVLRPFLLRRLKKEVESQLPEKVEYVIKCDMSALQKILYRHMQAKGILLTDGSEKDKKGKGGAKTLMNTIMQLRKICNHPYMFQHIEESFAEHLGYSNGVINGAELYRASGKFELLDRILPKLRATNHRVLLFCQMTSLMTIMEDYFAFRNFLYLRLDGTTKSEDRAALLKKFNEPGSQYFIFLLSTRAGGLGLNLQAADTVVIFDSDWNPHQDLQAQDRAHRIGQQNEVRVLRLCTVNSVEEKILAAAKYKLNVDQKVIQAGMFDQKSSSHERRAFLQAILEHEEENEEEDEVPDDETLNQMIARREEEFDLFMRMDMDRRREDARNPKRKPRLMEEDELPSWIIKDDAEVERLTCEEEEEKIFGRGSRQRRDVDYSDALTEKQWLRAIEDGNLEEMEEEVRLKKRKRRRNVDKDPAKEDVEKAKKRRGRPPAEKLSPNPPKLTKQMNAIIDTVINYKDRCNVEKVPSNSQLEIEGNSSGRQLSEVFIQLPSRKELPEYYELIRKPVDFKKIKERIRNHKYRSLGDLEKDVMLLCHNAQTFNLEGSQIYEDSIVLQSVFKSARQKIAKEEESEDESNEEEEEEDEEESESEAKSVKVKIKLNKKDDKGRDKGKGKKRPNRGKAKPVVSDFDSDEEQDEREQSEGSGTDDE

| SMILES | DC50 [1] [nM] | SMARCA2 % Degradation @ 1 μM ([1]; @ 1 μM) | DC50 [2] [nM] | inhibition at 1 µM ([2]; @ 1 μM) [%] | SMARCA2 % Degradation @ 1 μM ([1]; 1 μM) | inhibition at 1 µM ([2]; 1 μM) [%] |
| --- | --- | --- | --- | --- | --- | --- |
| Nc1nnc(-c2ccccc2O)cc1N1CCCN(c2ccnc(C#CCN3CCC(Cc4ccccc4)CC3)n2)CC1 [Compound P-337, 0-[6-amino-5-(4-{2-[3-(4-benzyl-1-piperidyl)-1-propynyl]-4-pyrimidinyl}-1,4-diazepan-1-yl)-3-pyridazinyl]phenol] | 50 to 500 | +++ (+++=>70%) | 50 to 500 | > 70 |  |  |
| C[C@@H]1CCN(c2cc(-c3ccccc3O)nnc2N)CCN1c1ccc(C#N)c(C#CCN(C)C)n1 [Compound P-423, 6-{(R)-4-[3-amino-6-(0-hydroxyphenyl)-4-pyridaziny1]-7-methyl-1,4-diazepan-1-yl}-2-[3-(dimethylamino)-1-propynyl]nicotinonitrile] | < 50 |  | < 50 |  | ++ (++=30-70%) | 30 to 70 |
| Nc1nnc(-c2ccccc2O)cc1N1CCN(c2ccnc(C#CCNC(=O)c3cn4ccncc4n3)n2)CC1 [Compound P-60, N-(3-(4-(4-(3-amino-6-(2-hydroxyphenyl)pyridazin-4-yl)piperazin-1-yl)pyrimidin-2-yl)prop-2-yn-1-yl)imidazo[1,2-a]pyrazinc-2-carboxamidc] | 50 to 500 | ++ (++=30-70%) | 50 to 500 | 30 to 70 |  |  |
| Nc1nnc(-c2ccccc2O)cc1N1CCN(c2ccnc(C#CCNC(=O)C3COc4ccccc4O3)n2)CC1 (stereo not shown) [Compound P-61, N-(3-(4-(4-(3-amino-6-(2-hydroxyphenyl)pyridazin-4-yl)piperazin-1-yl)pyrimidin-2-yl)prop-2-yn-1-yl)-2,3-dihydrobenzo[b][1,4]dioxine-2-carboxamide] | 50 to 500 | ++ (++=30-70%) | 50 to 500 | 30 to 70 |  |  |
| C[C@@H]1CCN(c2cc(-c3ccccc3O)nnc2N)CCN1c1ccnc(C#CCN2CC3CC2C3)n1 [Compound P-234, o-{5-[(R)-4-(2-{3-(2-azabicyclo[2.1.1]hex-2-yl)-1-propynyl}-4-pyrimidinyl)-5-methyl-1,4-diazepan-1-yl]-6-amino-3-pyridazinyl}phenol] | < 50 | +++ (+++=>70%) | < 50 | 30 to 70 |  |  |
| C[C@H]1CCN(c2cc(-c3ccccc3O)nnc2N)CCN1c1ccnc(C#CCNC(=O)c2cnc3ccccc3n2)n1 [Compound P-101, (S)-N-(3-(4-(4-(3-amino-6-(2-hydroxyphenyl)pyridazin-4-yl)-7-methyl-1,4-diazepan-1-yl)pyrimidin-2-y1)prop-2-yn-1-yl)quinoxaline-2-carboxamide] | < 50 | +++ (+++=>70%) | < 50 | > 70 |  |  |
| Nc1nnc(-c2ccccc2O)cc1N1CCCN(c2ccnc(C#CCn3ccc4ccccc43)n2)CC1 [Compound P-151, 2-(5-(4-(2-(3-(1H-indol-1-yl)prop-1-yn-1-yl)pyrimidin-4-yl)-1,4-diazepan-1-yl)-6-aminopyridazin-3-yl)phenol] | 50 to 500 | ++ (++=30-70%) | 50 to 500 | 30 to 70 |  |  |
| CN(C)CC#Cc1cc(OC2CCN(c3cc(-c4ccccc4O)nnc3N)CC2)ccn1 [Compound P-384, 0-[6-amino-5-(4-{2-[3-(dimethylamino)-1-propynyl]-4-pyridyloxy}-1-piperidyl)-3-pyridazinyl]phenol] | 50 to 500 |  | 50 to 500 |  | ++ (++=30-70%) | < 30 |
| Nc1nnc(-c2ccccc2O)cc1N1CCCC2C1CCN2c1ccnc(C#CCNC(=O)c2cc3ncccn3n2)n1 (stereo not shown) [Compound P-79, N-(3-(4-(4-(3-amino-6-(2-hydroxyphenyl)pyridazin-4-yl)octahydro-1H-pyrrolo[3,2-b]pyridin-1-yl)pyrimidin-2-yl)prop-2-yn-1-yl)pyrazolo[1,5-a]pyrimidine-2-carboxamide] | 500 to 5000 | ++ (++=30-70%) | 50 to 500 | 30 to 70 |  |  |
| C[C@@H]1CCN(c2cc(-c3ccccc3O)nnc2N)CCN1c1ccnc(/C=C/CN2CCOCC2)n1 [Compound P-167, o-(5-{(R)-5-methyl-4-[2-(3-morpholino-1-propenyl)-4-pyrimidinyl]-1,4-diazepan-1-y1}-6-amino-3-pyridazinyl)phenol] | < 50 | ++ (++=30-70%) | < 50 | < 30 |  |  |
| Nc1nnc(-c2ccccc2O)cc1N1CCCN(c2ccnc(C#CCN3C[C@H]4C[C@@H]3CO4)n2)CC1 [Compound P-376, 0-(5-{4-[2-(3-{(1R,4R)-2-oxa-5-azabicyclo[2.2.1]hept-5-y1}-1-propynyl)-4-pyrimidinyl]-1,4-diazepan-1-y1}-6-amino-3-pyridazinyl)phenol] | 50 to 500 | ++ (++=30-70%) | 500 to 5000 | 30 to 70 |  |  |
| Nc1nnc(-c2ccccc2O)cc1N1CCN(c2ccnc(C#CCNC(=O)c3cc4ccc(F)cc4o3)n2)CC1 [Compound P-52, N-(3-(4-(4-(3-amino-6-(2-hydroxyphenyl)pyridazin-4-yl)piperazin-1-yl)pyrimidin-2-yl)prop-2-yn-1-yl)-6-fluorobenzofuran-2-carboxamide] | 50 to 500 | ++ (++=30-70%) | 50 to 500 | 30 to 70 |  |  |
| C[C@@H]1CCC(=O)N1CC#Cc1ncc(F)c(N2CCN(c3cc(-c4ccccc4O)nnc3N)CC[C@H]2C)n1 [Compound P-175, (R)-1-[3-(4-{(R)-4-[3-amino-6-(o-hydroxyphenyl)-4-pyridazinyl]-7-methyl-1,4-diazepan-1-yl}-5-fluoro-2-pyrimidinyl)-2-propynyl]-5-methyl-2-pyrrolidinone] | 50 to 500 | ++ (++=30-70%) | 50 to 500 | < 30 |  |  |
| Cn1ccc(NCC#Cc2nccc(N3CCCN(c4cc(-c5ccccc5O)nnc4N)CC3)n2)n1 [Compound P-21, 2-(6-amino-5-(4-(2-(3-((1-methyl-1H-pyrazol-3-yl)amino)prop-1-yn-1-yl)pyrimidin-4-yl)-1,4-diazepan-1-yl)pyridazin-3-yl)phenol] | 50 to 500 | ++ (++=30-70%) | 50 to 500 | 30 to 70 |  |  |
| CC(C)(C)OC(=O)NC1CCN(CC#Cc2nccc(N3CCCN(c4cc(-c5ccccc5O)nnc4N)CC3)n2)CC1 [Compound P-142, tert-butyl (1-(3-(4-(4-(3-amino-6-(2-hydroxyphenyl)pyridazin-4-yl)-1,4-diazepan-1-yl)pyrimidin-2-yl)prop-2-yn-1-yl)piperidin-4-yl)carbamate] | 50 to 500 | +++ (+++=>70%) | 50 to 500 | > 70 |  |  |
| Nc1nnc(-c2ccccc2O)cc1N1CCCN(c2ccnc(C#CCNc3cc4ncccn4n3)n2)CC1 [Compound P-120, 2-(6-amino-5-(4-(2-(3-(pyrazolo[1,5-a]pyrimidin-2-ylamino)prop-1-yn-1-yl)pyrimidin-4-yl)-1,4-diazepan-1-yl)pyridazin-3-yl)phenol] | 500 to 5000 | ++ (++=30-70%) | 500 to 5000 | 30 to 70 |  |  |
| CN(C)c1cc(N2CCCN(c3cc(-c4ccccc4O)nnc3N)CC2)nc(C#CCNC(=O)c2cc3ncccn3n2)n1 [Compound P-139, N-(3-(4-(4-(3-amino-6-(2-hydroxyphenyl)pyridazin-4-yl)-1,4-diazepan-1-yl)-6-(dimethylamino)pyrimidin-2-yl)prop-2-yn-1-yl)pyrazolo[1,5-a]pyrimidine-2-carboxamide] | 50 to 500 | +++ (+++=>70%) | 500 to 5000 | > 70 |  |  |
| C[C@@H]1CCN(c2cc(-c3ccccc3O)nnc2N)CCN1c1ccnc(C#CCNC(=O)OC2CC/C=C\CCC2)n1 (stereo partly drawn) [Compound P-268, 4-[(R)-4-(2-{3-[(Z)-4-cycloocten-1-yloxycarbonylamino]-1-propynyl}-4-pyrimidinyl)-5-methyl-1,4-diazepan-1-yl]-6-(o-hydroxyphenyl)-3-pyridazinamine] | 50 to 500 | +++ (+++=>70%) | 50 to 500 | 30 to 70 |  |  |
| C[C@H]1CN(c2ccnc(C#CCN3CCCCC3)n2)CCN1c1cc(-c2ccccc2O)nnc1N [Compound P-319, 0-(5-{(S)-2-methyl-4-[2-(3-piperidino-1-propynyl)-4-pyrimidinyl]-1-piperazinyl}-6-amino-3-pyridazinyl)phenol] | < 50 | ++ (++=30-70%) | < 50 | < 30 |  |  |
| CN(C)CC#Cc1cc(N2C[C@@H]3CN(c4cc(-c5ccccc5O)nnc4N)C[C@@H]3C2)ccn1 [Compound P-389, 0-{5-[(1R,5S)-7-{2-[3-(dimethylamino)-1-propynyl]-4-pyridyl}-3,7-diazabicyclo[3.3.0]oct-3-yl]-6-amino-3-pyridazinyl} phenol] | 50 to 500 |  | < 50 |  | ++ (++=30-70%) | 30 to 70 |
| C[C@@H]1CCN(c2cc(-c3ccccc3O)nnc2N)CCN1c1nc(C#CCNC(=O)OC(C)(C)C)ncc1F [Compound P-248] | 500 to 5000 | ++ (++=30-70%) | 500 to 5000 | < 30 |  |  |
| C[C@@H]1CCN(c2cc(-c3ccccc3O)nnc2N)CCN1c1ccnc(C#CCN(C)C)n1 [Compound P-345, 0-{5-[(R)-4-{2-[3-(dimethylamino)-1-propynyl]-4-pyrimidinyl}-5-methyl-1,4-diazepan-1-y1]-6-amino-3-pyridazinyl}phenol] | < 50 | ++ (++=30-70%) | < 50 | 30 to 70 |  |  |

Reference: patent publication US20260265238A1, “COMPOUNDS AND PHARMACEUTICAL COMPOSITIONS THAT DEGRADE SWI/SNF-RELATED MATRIX-ASSOCIATED ACTIN-DEPENDENT REGULATOR OF CHROMATIN SUBFAMILY A” (Plexium, Inc., priority 2023, published 2026)
